Laboratory results taken from US12617773B2, “Azetidin-3-ylmethanol derivatives as CCR6 receptor modulators” (Idorsia Pharmaceuticals Ltd, priority 2020, dated 2026).

target: T1, human CCR6 (Homo sapiens, UniProt P51684); assay: FLIPR assay (inhibition of CCL20-induced calcium signal); format: cell-based; conditions: HEK-293 cells expressing human CCR6; mean values where determined several times; read-out: FLIPR IC50
T1 construct: expressed in transfected cells; host or cells: HEK-293
T1 sequence (P51684 1-374): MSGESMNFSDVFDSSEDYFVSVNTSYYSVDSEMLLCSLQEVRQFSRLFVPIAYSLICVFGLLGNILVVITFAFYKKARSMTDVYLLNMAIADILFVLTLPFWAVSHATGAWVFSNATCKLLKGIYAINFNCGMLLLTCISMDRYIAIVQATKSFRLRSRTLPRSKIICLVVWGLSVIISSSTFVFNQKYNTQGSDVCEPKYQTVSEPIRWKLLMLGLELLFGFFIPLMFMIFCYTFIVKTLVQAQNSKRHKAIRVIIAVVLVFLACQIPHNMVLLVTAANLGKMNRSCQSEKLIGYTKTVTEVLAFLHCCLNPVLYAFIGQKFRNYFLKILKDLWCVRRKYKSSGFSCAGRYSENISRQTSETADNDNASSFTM
Procedure, shortened: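 IC50 values come from baseline-corrected peak calcium fluorescence after agonist. The agonist was CCL20 at 10 nM final, added to engineered human CCR6 HEK-293 cells following a 30-min, room-temperature, dark preincubation with serially diluted compound. Readings were taken in a fluorometric imaging plate reader.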

Row | IC50 | SMILES
1 | 61.6 nM | CC(C)c1ccc([C@](O)(c2cncc(N3CC[C@H](F)C3)c2)C2(C)CN(C)C2)cc1 [Example 283]
2 | 222 nM | CC(C)c1ccc([C@](O)(c2cncc(-n3cc(C4CCOCC4)nn3)c2)C2(C)CN(C)C2)cc1 [Example 284, (R)-(1,3-Dimethyl-azetidin-3-yl)-(4-isopropyl-phenyl)-{5-[4-(tetrahydro-pyran-4-yl)-[1,2,3]triazol-1-yl}-pyridin-3-yl]-methanol]
3 | 78 nM | Cc1cncc(C(O)(c2ccc(C(C)C)cc2)C2(C)CN(C)C2)c1 (stereo not drawn) [Example 285]
4 | 36.3 nM | C=C(C)c1cncc(C(O)(c2ccc(C(C)C)cc2)C2(C)CN(C)C2)c1 (stereo not drawn) [Example 286]
5 | 42.8 nM | CC(C)c1ccc(C(O)(c2cncc(C3CC3)c2)C2(C)CN(C)C2)cc1 (stereo not drawn) [Example 287]
6 | 33.9 nM | CC(C)c1ccc(C(O)(c2cncc(C3=CCCC3)c2)C2(C)CN(C)C2)cc1 (stereo not drawn) [Example 288]
7 | 82.4 nM | CC(C)c1ccc(C(O)(c2cncc(C3=CC(O)CC3)c2)C2(C)CN(C)C2)cc1 (stereo not drawn) [Example 289, 3-{5-[(1,3-Dimethyl-azetidin-3-yl)-hydroxy-(4-isopropyl-phenyl)-methyl]-pyridin-3-yl}-cyclopent-2-enol]
8 | 24.8 nM | CC(C)c1ccc(C(O)(c2cncc(C3CCCC3)c2)C2(C)CN(C)C2)cc1 (stereo not drawn) [Example 291]
9 | 748 nM | CC(C)c1ccc(C(O)(c2cncc(C3CCC(O)C3)c2)C2(C)CN(C)C2)cc1 (stereo not drawn) [Example 292]
10 | 118 nM | CC(C)c1ccc([C@](O)(c2cncc([C@H]3CCC(C)(O)C3)c2)C2(C)CN(C)C2)cc1 (stereo partly drawn) [Example 296, (3S)-3-(5-((R)-(1,3-dimethylazetidin-3-yl)(hydroxy)(4-isopropylphenyl)methyl)pyridin-3-yl)-1-methylcyclopentan-1-ol]
11 | 65.2 nM | CCC1(O)CCC(c2cncc([C@@](O)(c3ccc(C(C)C)cc3)C3(C)CN(C)C3)c2)C1 (stereo partly drawn) [Example 298, 3-{5-[(R)-(1,3-Dimethyl-azetidin-3-yl)-hydroxy-(4-isopropyl-phenyl)-methyl]-pyridin-3-yl}-1-ethyl-cyclopentanol]
12 | 60 nM | CCc1cncc([C@@](O)(c2ccc(C(C)C)cc2)C2(C)CN(C)C2)c1 [Example 301, (R)-(1,3-Dimethyl-azetidin-3-yl)-(5-ethyl-pyridin-3-yl)-(4-isopropyl-phenyl)-methanol]
13 | 44.5 nM | Cc1cncc([C@@](O)(c2ccc(C(C)C)cc2)C2(C)CN(C)C2)c1 [Example 302, (R)-(1,3-Dimethyl-azetidin-3-yl)-(4-isopropyl-phenyl)-(5-methyl-pyridin-3-yl)-methanol]
14 | 30.7 nM | CC(C)c1ccc([C@](O)(c2cncc(C3=COCC3)c2)C2(C)CN(C)C2)cc1 [Example 303, (R)-[5-(4,5-Dihydro-furan-3-yl)-pyridin-3-yl]-(1,3-dimethyl-azetidin-3-yl)-(4-isopropyl-phenyl)-methanol]
15 | 385 nM | CC(C)c1ccc([C@](O)(c2cncc(C3CCOC3)c2)C2(C)CN(C)C2)cc1 (stereo partly drawn) [Example 304, (R)-(1,3-Dimethyl-azetidin-3-yl)-(4-isopropyl-phenyl)-[5-(tetrahydro-furan-3-yl)-pyridin-3-yl]-methanol]
16 | 121 nM | C=C(CCO)c1cncc([C@@](O)(c2ccc(C(C)C)cc2)C2(C)CN(C)C2)c1 [Example 305, 3-{5-[(R)-(1,3-Dimethyl-azetidin-3-yl)-hydroxy-(4-isopropyl-phenyl)-methyl]-pyridin-3-yl}-but-3-en-1-ol]
17 | 101 nM | CC(C)c1ccc([C@](O)(c2cncc(C(=O)NC3CCCC3)c2)C2(C)CN(C)C2)cc1 [Example 306, N-Cyclopentyl-5-[(R)-(1,3-dimethyl-azetidin-3-yl)-hydroxy-(4-isopropyl-phenyl)-methyl]-nicotinamide]
18 | 567 nM | CC(C)c1ccc([C@](O)(c2cncc(C(=O)N3CCCC3)c2)C2(C)CN(C)C2)cc1 [Example 307]
19 | 515 nM | CC(C)c1ccc([C@](O)(c2cncc(C(=O)NC3CCOCC3)c2)C2(C)CN(C)C2)cc1 [Example 308]
20 | 23.9 nM | CC(C)c1ccc([C@](O)(c2cncc(C3CCN(C(=O)OC(C)(C)C)CC3)c2)C2(C)CN(C)C2)cc1 [Example 312, 5-[(R)-(1,3-Dimethyl-azetidin-3-yl)-hydroxy-(4-isopropyl-phenyl)-methyl]-3′,4′,5′,6′-tetrahydro-2′H-[3,4′]bipyridinyl-1′-carboxylic acid tert-butyl ester]
21 | 111 nM | CC(C)c1ccc([C@](O)(c2cncc(C3CCOCC3)c2)C2(C)CN(C)C2)cc1 [Example 314]
22 | 154 nM | CC(C)c1ccc([C@](O)(c2cncc(C3CCCO3)c2)C2(C)CN(C)C2)cc1 (stereo partly drawn) [Example 318, (R)-(1,3-Dimethyl-azetidin-3-yl)-(4-isopropyl-phenyl)-[5-(tetrahydro-furan-2-yl)-pyridin-3-yl]-methanol]
23 | 94.4 nM | CC1CCC(c2cncc([C@@](O)(c3ccc(C(C)C)cc3)C3(C)CN(C)C3)c2)O1 (stereo partly drawn) [Example 319]
24 | 86 nM | CC(C)c1ccc([C@](O)(c2cncc(C3CCC(C)(C)O3)c2)C2(C)CN(C)C2)cc1 (stereo partly drawn) [Example 320]
25 | 67.8 nM | CC(C)c1ccc([C@](O)(c2cncc(-c3ncc(C4CCOCC4)o3)c2)C2(C)CN(C)C2)cc1 [Example 323, (R)-(1,3-Dimethyl-azetidin-3-yl)-(4-isopropyl-phenyl)-{5-[5-(tetrahydro-pyran-4-yl)-oxazol-2-yl]-pyridin-3-yl}-methanol]

The next lines start with the compound.

Row | SMILES | IC50
26 | CN1CC(C)([C@](O)(c2ccc(C(F)(F)F)cc2)c2cncc(N3CCCC3)c2)C1 [Example 281, (R)-(1,3-Dimethyl-azetidin-3-yl)-(5-pyrrolidin-1-yl-pyridin-3-yl)-(4-trifluoromethyl-phenyl)-methanol] | 82.2 nM
27 | CC(C)c1ccc([C@](O)(c2cncc(N3CC[C@@](C)(CO)C3)c2)C2(C)CN(C)C2)cc1 [Example 282] | 44.3 nM
28 | CC(C)c1ccc(C(O)(c2cncc(C(C)C)c2)C2(C)CN(C)C2)cc1 (stereo not drawn) [Example 290] | 100 nM
29 | CC(C)c1ccc([C@](O)(c2cccnc2)C2(C)CN(C)C2)cc1 [Example 293] | 246 nM
30 | CC(C)c1ccc([C@](O)(c2cncc(C3=CC(=O)CC3)c2)C2(C)CN(C)C2)cc1 [Example 294, 3-{5-[(R)-(1,3-Dimethyl-azetidin-3-yl)-hydroxy-(4-isopropyl-phenyl)-methyl]-pyridin-3-yl}-cyclopent-2-enone] | 49.4 nM
31 | CC(C)c1ccc([C@](O)(c2cncc(C3=CC(C)(O)CC3)c2)C2(C)CN(C)C2)cc1 (stereo partly drawn) [Example 295, 3-{5-[(R)-(1,3-Dimethyl-azetidin-3-yl)-hydroxy-(4-isopropyl-phenyl)-methyl]-pyridin-3-yl}-1-methyl-cyclopent-2-enol] | 61.1 nM
32 | CC(C)c1ccc([C@](O)(c2cncc(C3CCC(O)(C(C)C)C3)c2)C2(C)CN(C)C2)cc1 (stereo partly drawn) [Example 299, 3-{5-[(R)-(1,3-Dimethyl-azetidin-3-yl)-hydroxy-(4-isopropyl-phenyl)-methyl]-pyridin-3-yl}-1-isopropyl-cyclopentanol] | 80.6 nM
33 | Cc1coc(-c2cncc([C@@](O)(c3ccc(C(C)C)cc3)C3(C)CN(C)C3)c2)n1 [Example 300, (R)-(1,3-Dimethyl-azetidin-3-yl)-(4-isopropyl-phenyl)-[5-(4-methyl-oxazol-2-yl)-pyridin-3-yl]-methanol] | 40.8 nM
34 | COCCCc1ccc(C(O)(c2cncc(N3CCCC3)c2)C2(C)CN(C)C2)cc1 (stereo not drawn) [Example 309, (1,3-Dimethyl-azetidin-3-yl)-[4-(3-methoxy-propyl)-phenyl]-(5-pyrrolidin-1-yl-pyridin-3-yl)-methanol] | 58.6 nM
35 | CN1CC(C)([C@](O)(c2ccc(C3CC3)cc2)c2cncc(N3CCCC3)c2)C1 [Example 310] | 48.6 nM
36 | Cc1ccc([C@](O)(c2cncc(N3CCCC3)c2)C2(C)CN(C)C2)cc1 [Example 311] | 140 nM
37 | CC(C)c1ccc([C@](O)(c2cncc(C3CCN(C(=O)OC(C)(C)C)C3)c2)C2(C)CN(C)C2)cc1 (stereo partly drawn) [Example 313] | 158 nM
38 | CC(C)c1ccc([C@](O)(c2cncc(C3CCN(c4ccccn4)CC3)c2)C2(C)CN(C)C2)cc1 [Example 315, (R)-(1,3-Dimethyl-azetidin-3-yl)-(4-isopropyl-phenyl)-(3′,4′,5′,6′-tetrahydro-2′H-[2,1′; 4′,3″]terpyridin-5″-yl)-methanol] | 23.6 nM
39 | CC(C)c1ccc([C@](O)(c2cncc(CC(F)(F)CO)c2)C2(C)CN(C)C2)cc1 [Example 321, 3-{5-[(R)-(1,3-Dimethyl-azetidin-3-yl)-hydroxy-(4-isopropyl-phenyl)-methyl]-pyridin-3-yl}-2,2-difluoro-propan-1-ol] | 273 nM
40 | Cc1cnc(-c2cncc([C@@](O)(c3ccc(C(C)C)cc3)C3(C)CN(C)C3)c2)o1 [Example 322, (R)-(1,3-Dimethyl-azetidin-3-yl)-(4-isopropyl-phenyl)-[5-(5-methyl-oxazol-2-yl)-pyridin-3-yl]-methanol] | 49.9 nM
41 | CC(C)c1ccc([C@](O)(c2cncc(COc3ccc(F)cc3)c2)C2(C)CN(C)C2)cc1 [Example 324, (R)-(1,3-Dimethyl-azetidin-3-yl)-[5-(4-fluoro-phenoxymethyl)-pyridin-3-yl]-(4-isopropyl-phenyl)-methanol] | 15 nM
42 | CC(C)NC(=O)OCc1cncc([C@@](O)(c2ccc(C(C)C)cc2)C2(C)CN(C)C2)c1 [Example 325, Isopropyl-carbamic acid 5-[(R)-(1,3-dimethyl-azetidin-3-yl)-hydroxy-(4-isopropyl-phenyl)-methyl]-pyridin-3-ylmethyl ester] | 595 nM
